{
  "source": "PubChem BioAssay (NCI)",
  "test_in_all_cases": "NCI tumour cell line growth inhibition, 48 h",
  "key": {"MCF7 breast": {"test_system": "MCF7 breast"}, "NCI/ADR-RES ovarian": {"test_system": "NCI/ADR-RES ovarian"}, "P388 leukemia": {"test_system": "P388 leukemia"}, "P388/ADR leukemia": {"test_system": "P388/ADR leukemia"}, "LXFL 529 NSCLC": {"test_system": "LXFL 529 NSCLC"}, "BT-549 breast": {"test_system": "BT-549 breast"}, "DU-145 prostate": {"test_system": "DU-145 prostate"}, "PC-3 prostate": {"test_system": "PC-3 prostate"}},
  "note": "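Test compounds were applied to cells in 96-well plates for 48 hours at 5 doses. The concentration for full growth arrest is given as TGI.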",
  "data": [
    {"molecule": "COc1nc(NC2OC(CO)C(O)C(O)C2O)c(N)c(=O)[nH]1", "note": "(stereo not drawn)", "values": [
      {"measurement": "TGI", "setting": "MCF7 breast", "value": "> 100", "unit": "µM"},
      {"measurement": "TGI", "setting": "NCI/ADR-RES ovarian", "value": "> 100", "unit": "µM"},
      {"measurement": "TGI", "setting": "P388 leukemia", "value": "> 100", "unit": "µM"},
      {"measurement": "TGI", "setting": "P388/ADR leukemia", "value": "> 100", "unit": "µM"}
    ]},
    {"molecule": "O=C1CCC2COc3ccc(O)c1c32", "note": "(stereo not drawn)", "values": [
      {"measurement": "TGI", "setting": "LXFL 529 NSCLC", "value": "> 100", "unit": "µM"}
    ]},
    {"molecule": "COC(=O)Cc1c(C2C(CC(=O)OC)c3ccccc3N2C2OC(CO)C(O)C(O)C2O)[nH]c2ccccc12", "note": "(stereo not drawn)", "values": [
      {"measurement": "TGI", "setting": "BT-549 breast", "value": "> 100", "unit": "µM"},
      {"measurement": "TGI", "setting": "DU-145 prostate", "value": "> 100", "unit": "µM"},
      {"measurement": "TGI", "setting": "PC-3 prostate", "value": "> 100", "unit": "µM"}
    ]}
  ]
}
